Each structure is given as a SMILES string.

By inhibition in vivo is commonly meant the relative decrease from the control value, in per cent. Higher therefore signals a response far below the control. A word on the IC50: it is the concentration at which inhibition is half-maximal. Read a high IC50 as a need for much substance.

Assay [1] concerns Rattus norvegicus. The assay can be described thus: Exudate volume was determined after administration at a dose of 100 umol/kg. Format: functional.
Assay [2] is filed under the species Oryctolagus cuniculus. The assay can be described thus: In vitro of platelet aggregation of citreated rabbit platelet-rich plasma, induced by arachidonic acid at 200 uM. Format: functional.
Assay [3] is filed under the species Oryctolagus cuniculus. The assay can be described thus: In vitro of platelet aggregation of citreated rabbit platelet-rich plasma, induced by collagen at 5 µg/mL; value expressed as slope.
For assay [4], the system named is Rattus norvegicus. The assay is described as follows: Percent inhibition of cellular migration by the compound at a dose of 100 umol/kg was evaluated. Format: functional.
The test system of assay [5] is Rattus norvegicus. The assay is described as follows: Antiinflammatory effect at a dose of 100 umol/kg administered orally in the carrageenan-induced rat pleurisy assay (10e6 Cells/cavity). In kind it is functional.
Assay [6] has as its system Rattus norvegicus. The assay can be described thus: Exudate volume was determined after administration at a dose of 100 umol/kg in the carrageenan-induced rat pleurisy assay. Format: functional.
In assay [7] the test system is Rattus norvegicus. The assay can be described thus: Percent inhibition of cellular migration by the compound at a dose of 100 umol/kg was evaluated in the carrageenan-induced rat pleurisy assay. Format: functional.
For a further assay, the species on record is Cavia porcellus. The assay is described as follows: In vitro effect of compound on leukotriene-D4 LTD4 (100 nM) induced contraction of isolated guinea pig tracheal strip. Format: functional. Conditions: Trachea.
The species entered for assay [8] is Oryctolagus cuniculus. The assay is described as follows: Compound was tested for platelet aggregation in citreated rabbit platelet-rich plasma induced by arachidonic acid at 200 uM. In kind it is functional.

The compound `Cc1nn(-c2ccccc2)c2ncc3c(OCc4ccc(CC(=O)O)cc4)c(-c4ccc(Cl)cc4)sc3c12` gave an Exudate volume with Rattus norvegicus [1] of 3.1 mL. Further, the Aggregation is given as 60.5% in the assay listed under Oryctolagus cuniculus [2] and 4.7 in the assay listed under Oryctolagus cuniculus [3]. In addition, in the assay with Rattus norvegicus [4], the inhibition in vivo at 100 µmol/kg worked out at 28.7%. The compound also yielded a Cell number in the assay on Rattus norvegicus [5] of 21900000.

Regarding `COc1ccc2c(c1)c(CC(=O)O)c(C)n2C(=O)c1ccc(Cl)cc1` [INDOMETHACIN], the Exudate volume in the assay with Rattus norvegicus [6] was found to be 3.21 mL. For the same compound, the Aggregation in the assay listed under Oryctolagus cuniculus [2] worked out at 0%; in the assay filed under Oryctolagus cuniculus [3] it was 0.4. The Cell number in the assay on Rattus norvegicus [5] worked out at 23.3. Besides, in the assay with Rattus norvegicus [7], the inhibition in vivo at 100 µmol/kg was 24.1%.

Compound `Cc1nn(-c2ccccc2)c2ncc3c(OCCCCCC(=O)O)c(-c4ccc(Cl)cc4)sc3c12` yielded an Exudate volume with Rattus norvegicus [1] of 3.16 mL. Also, the Aggregation in the assay listed under Oryctolagus cuniculus [2] is reported as 56.6%; in the assay filed under Oryctolagus cuniculus [3], 5.8. The compound also came in with an inhibition in vivo at 100 µmol/kg with Rattus norvegicus [4] of 42%. In the assay with Rattus norvegicus [5], this compound registered a Cell number of 17800000.

In the assay on Rattus norvegicus [1], `Cc1nn(-c2ccccc2)c2ncc3c(OC(=O)CCCC(=O)O)c(-c4ccc(Cl)cc4)sc3c12` had an Exudate volume of 3.05 mL. Also, the IC50 in the assay listed under Cavia porcellus worked out at 43.7 µM; in the assay listed under Oryctolagus cuniculus [8], 140 nM. Besides, the Aggregation is recorded as 0% in the assay filed under Oryctolagus cuniculus [2] and 0 in the assay listed under Oryctolagus cuniculus [3]. Besides, in the assay on Rattus norvegicus [4], the inhibition in vivo at 100 µmol/kg was 36.2%. In addition, the Cell number in the assay on Rattus norvegicus [5] was 19600000.

In the assay on Rattus norvegicus [1], `Cc1nn(-c2ccccc2)c2ncc3c(OCCCCC(=O)O)c(-c4ccc(Cl)cc4)sc3c12` yielded an Exudate volume of 3.22 mL. Further, the figures for the Aggregation in the assay filed under Oryctolagus cuniculus [2] and in the assay filed under Oryctolagus cuniculus [3] were 58.9% and 7.5, respectively. The same compound registered an inhibition in vivo at 100 µmol/kg in the assay on Rattus norvegicus [4] of 30%. The same compound registered a Cell number with Rattus norvegicus [5] of 21.5.

The values above are taken from ChEMBL document CHEMBL1135840, “Design, synthesis and pharmacological evaluation of novel pyrazolo[3,4-b]thieno[2,3-d]pyridine acid derivatives: a new class of anti-inflammatory and anti-platelet agents” (Bioorg Med Chem Lett, 2002).
